Data taken from US6514957B1, “Method of alleviating the violence and stimulating the appetite of stag in the puberty age of the fall and method of promoting the growth of stag's horn” (priority 2001, dated 2003).
Where “and” joins values, the source holds several entries; their conditions need not be identical. Equal values may be shown once. Entries after “also recorded” stand apart in the source; their conditions may differ.

Columns and labels:
[1] = tested on: stags of elk of which the first horn was cut in the summer; test: Promoting the growth of the second stag's horn after cutting the first horn; type: in vivo; conditions: for Growth and development progress of the second stag's horn: 500 mg (1 mg/kg) injected Oct. 2, 1999 or Oct. 2, 2000
Method: To 4 stags of elk, of which the first horn coming up in the spring and growing cut in the summer, each in the weight of 500 kg, 17β-decanoate-4-estrene-3-one 500 mg (effective dose corresponding to 1 mg per 1 kg of the weight of stag: “ANABOLIN FORTE” is the trademark manufactured by Alfasan in Nederland and containing 17β-decanoate-4-estrene-3-one 50 mg in a injection product 1 ml; “ANABOLIN FORTE 10 ml” is the trademark imported by BUM-HAN PHARM. in Korea) was injected-injected.
To 8 stags of elk, each in the weight of 500 kg, of which the first horn coming up in the spring and grown up cuts in the summer, 17β-decanoate-4-estrene-3-one 50 mg, 100 mg, 250 mg, 500 mg, 750 mg, 1,000 mg, 2,500 mg and 5,000 mg (effective doses corresponding to 0.1 mg, 0.2 mg, 0.5 mg, 1.0 mg, 1.5 mg, 2.0 mg, 5.0 mg and 10 mg per 1 kg of the weight of stag: “ANABOLIN FORTE” is the trademark manufactured by Alfasan in Nederland and containing 17β-decanoate-4-estrene-3-one 50 mg in a injection product 1 ml; “ANABOLIN FORTE 1 ml, 2 ml, 5 ml, 10 ml, 15 ml, 20 ml, 50 ml and 100 ml” is the trademark imported by BUM-HAN PHARM. in Korea) were injected-injected.
Example 8 was the same as Example 3, except that Example 8 substituted 17β-cyclohexylpropionate-4-estrene-3-one for 17β-decanoate-4-estrene-3-one.
Example 9 was the same as Example 5, except that Example 9 substituted 17β-cyclohexylpropionate-4-estrene-3-one for 17β-decanoate-4-estrene-3-one.
Example 11 was the same as Example 3, except that Example 9 substituted a compound of 17β-decanoate-4-estrene-3-one and 17β-cyclohexylpropionate-4-estrene-3-one for 17β-decanoate-4-estrene-3-one.

[2] = tested on: stags of elk, violent and anorexia in the puberty age of the fall; test: Alleviating the violence and stimulating the appetite of stags in the puberty age of the fall; type: in vivo
Method: To 4 stags of elk, each in the weight of 500 kg, which is violent and anorexia in the puberty age of the fall, 17β-decanoate-4-estrene-3-one 500 mg (effective dose corresponding to 1 mg per 1 kg of the weight of stag: “ANABOLIN FORTE” is the trademark manufactured by Alfasan in Nederland and containing 17β-decanoate-4-estrene-3-one 50 mg in a injection product 1 ml; “ANABOLIN FORTE 10 ml” is the trademark imported by BUM-HAN PHARM. in Korea) was intramuscularly-injected.
To 8 stags of elk, each in the weight of 500 kg, which is violent and anorexia in the puberty age of the fall, 17β-decanoate-4-estrene-3-one 50 mg, 100 mg, 250 mg, 500 mg, 750 mg, 1,000 mg, 2,500 mg and 5,000 mg (effective doses corresponding to 0.1 mg, 0.2 mg, 0.5 mg, 1.0 mg, 1.5 mg, 2.0 mg, 5.0 mg and 10 mg per 1 kg of the weight of stag: “ANABOLIN FORTE” is the trademark manufactured by Alfasan in Nederland and containing 17β-decanoate-4-estrene-3-one 50 mg in a injection product 1 ml; “ANABOLIN FORTE 1 ml, 2 ml, 5 ml, 10 ml, 15 ml, 20 ml, 50 ml and 100 ml” is the trademark imported by BUM-HAN PHARM. in Korea) were injected-injected.
Example 6 was the same as Example 1, except that Example 6 substituted 17β-cyclohexylpropionate-4-estrene-3-one for 17β-decanoate-4-estrene-3-one.
Example 7 was the same as Example 2, except that Example 7 substituted 17β-cyclohexylpropionate-4-estrene-3-one for 17β-decanoate-4-estrene-3-one.
Example 10 was the same as Example 2, except that Example 9 substituted a compound of 17β-decanoate-4-estrene-3-one and 17β-cyclohexylpropionate-4-estrene-3-one for 17β-decanoate-4-estrene-3-one.

[3] = Elk 5, 500 kg, dose 50 mg (0.1 mg/kg) injected
[4] = Elk 6, 500 kg, dose 100 mg (0.2 mg/kg) injected
[5] = Elk 7, 500 kg, dose 250 mg (0.5 mg/kg) injected
[6] = Elk 8, 500 kg, dose 500 mg (1.0 mg/kg) injected
[7] = Elk 9, 500 kg, dose 750 mg (1.5 mg/kg) injected
[8] = Elk 10, 500 kg, dose 1,000 mg (2.0 mg/kg) injected
[9] = Elk 11, 500 kg, dose 2,500 mg (5.0 mg/kg) injected
[10] = Elk 12, 500 kg, dose 5,000 mg (10 mg/kg) injected
[11] = elk stags 500 kg, doses 0.1, 0.2, 0.5, 1.0, 1.5, 2.0, 5.0 and 10 mg per kg

Compound: CCCCCCCCCC(=O)O[C@H]1CC[C@H]2[C@@H]3CCC4=CC(=O)CC[C@@H]4[C@H]3CC[C@]12C [17β-decanoate-4-estrene-3-one]
- Growth and development progress of the second stag's horn ([1]; 0 days after administration, individual Elk 21, 22 (500 kg)): 0 cm
- production amount of the second stag's horn relative to that of the first stag's horn ([1]; 1 mg/kg injected, elk 500 kg): about 80%
- time from administration until the second stag's horn comes up ([1]; 1 mg/kg intramuscularly injected, elk 500 kg): 30 days
- growth rate of the second stag's horn ([1]; 1 mg/kg intramuscularly injected, elk 500 kg, after the horn came up): 3 cm per a day
- Production amount of stag's horn: the second horn collected in the next spring ([1]; 500 mg (1 mg/kg) injected 1999.10.2 or 2000.10.2, individual Elk 21, 22 (500 kg)): 12 kg (2×) and 9.6 kg (2×)
- Growth and development progress of the second stag's horn ([1]; 10 days after administration, individual Elk 21, 22 (500 kg)): 0 cm
- Growth and development progress of the second stag's horn ([1]; 20 days after administration, individual Elk 21, 22 (500 kg)): 0 cm
- Growth and development progress of the second stag's horn ([1]; 30 days after administration, individual Elk 21, 22 (500 kg)): 0.5 cm
- Growth and development progress of the second stag's horn ([1]; 40 days after administration, individual Elk 21, 22 (500 kg)): approximately 30 cm and 30 cm
- Growth and development progress of the second stag's horn ([1]; 50 days after administration, individual Elk 21, 22 (500 kg)): 40 cm
- Growth and development progress of the second stag's horn ([1]; 60 days after administration, individual Elk 21, 22 (500 kg)): 60 cm
- Growth and development progress of the second stag's horn ([1]; 70 days after administration, individual Elk 21, 22 (500 kg)): 80 cm
- Growth and development progress of the second stag's horn ([1]; 80 days after administration, individual Elk 21, 22 (500 kg)): 90 cm and 100 cm (3×)
- Growth and development progress of the second stag's horn ([1]; 90 days after administration, individual Elk 21, 22 (500 kg)): 100 cm and 110 cm (2×) and 120 cm
- Growth and development progress of the second stag's horn ([1]; 100 days after administration, individual Elk 21, 22 (500 kg)): 100 cm and 110 cm (2×) and 120 cm
- Production amount of stag's horn: the second horn collected in the next spring ([1]; Elk 31, 500 kg, dose 50 mg (0.1 mg/kg), first horn 15 kg): 5 kg
- Production amount of stag's horn: the second horn collected in the next spring ([1]; Elk 32, 500 kg, dose 100 mg (0.2 mg/kg), first horn 15 kg): 5 kg
- Production amount of stag's horn: the second horn collected in the next spring ([1]; Elk 33, 500 kg, dose 250 mg (0.5 mg/kg), first horn 15 kg): 12 kg
- Production amount of stag's horn: the second horn collected in the next spring ([1]; Elk 34, 500 kg, dose 500 mg (1.0 mg/kg), first horn 15 kg): 12 kg
- Production amount of stag's horn: the second horn collected in the next spring ([1]; Elk 35, 500 kg, dose 750 mg (1.5 mg/kg), first horn 15 kg): 12 kg
- Production amount of stag's horn: the second horn collected in the next spring ([1]; Elk 36, 500 kg, dose 1,000 mg (2.0 mg/kg), first horn 15 kg): 12 kg
- Production amount of stag's horn: the second horn collected in the next spring ([1]; Elk 37, 500 kg, dose 2,500 mg (5.0 mg/kg), first horn 15 kg): 5 kg
- Production amount of stag's horn: the second horn collected in the next spring ([1]; Elk 38, 500 kg, dose 5,000 mg (10 mg/kg), first horn 15 kg): 5 kg
- growth of stag's horn ([1]; elk 500 kg, doses 0.1, 0.2, 0.5, 1.0, 1.5, 2.0, 5.0 and 10 mg per kg): promoted
- Status After: appetite [2, 3]: Stimulating appetite
- Status After: violence [2, 3]: Alleviating violence
- Status After: appetite [2, 4]: Stimulating appetite
- Status After: violence [2, 4]: Alleviating violence
- Status After: appetite [2, 5]: Stimulating appetite
- Status After: violence [2, 5]: Alleviating violence
- Status After: appetite [2, 6]: Stimulating appetite
- Status After: violence [2, 6]: Alleviating violence
- Status After: appetite [2, 7]: Stimulating appetite
- Status After: violence [2, 7]: Alleviating violence
- Status After: appetite [2, 8]: Stimulating appetite
- Status After: violence [2, 8]: Alleviating violence
- Status After: appetite [2, 9]: Stimulating appetite
- Status After: violence [2, 9]: Alleviating violence
- Status After: appetite [2, 10]: Stimulating appetite
- Status After: violence [2, 10]: Alleviating violence
- Status After: appetite ([2]; elk stags 500 kg, anorexia before, 500 mg (1 mg/kg) intramuscularly injected 2000.10.2, individual Elk 1-4): stimulated in appetite; also recorded: Stimulating appetite
- Status After: violence ([2]; elk stags 500 kg, violent before, 500 mg (1 mg/kg) intramuscularly injected 2000.10.2, individual Elk 1-4): less violent; also recorded: Alleviating violence
- intake of feed ([2]; elk stags 500 kg, 1.0 mg/kg intramuscularly injected): increasing the intake of feed
- appetite after injection [2, 11]: stimulated in appetite
- intake of feed [2, 11]: increasing the intake of feed
- violence after injection [2, 11]: less violent

Compound: C[C@]12CC[C@H]3[C@@H](CCC4=CC(=O)CC[C@@H]43)[C@@H]1CC[C@@H]2OC(=O)CCC1CCCCC1 [17β-cyclohexylpropionate-4-estrene-3-one]
- test results (growth and production amount of the second stag's horn) compared with 17β-decanoate-4-estrene-3-one ([1]; conducted as Example 3: 500 mg (1 mg/kg), elk stags 500 kg): the same as those of Example 3
- test results (production amount of the second stag's horn by dose) compared with 17β-decanoate-4-estrene-3-one ([1]; conducted as Example 5: 50 to 5,000 mg (0.1 to 10 mg/kg), elk stags 500 kg): the same as those of Example 5
- test results (violence, appetite) compared with 17β-decanoate-4-estrene-3-one ([2]; conducted as Example 1: 500 mg (1 mg/kg) intramuscular, elk stags 500 kg): the same as those of Example 1
- test results (violence, appetite) compared with 17β-decanoate-4-estrene-3-one ([2]; conducted as Example 2: 50 to 5,000 mg (0.1 to 10 mg/kg), elk stags 500 kg): the same as those of Example 2
